Source: ChEMBL document CHEMBL3862022, “Synthesis and biological evaluation of lovastatin-derived aliphatic hydroxamates that induce reactive oxygen species” (Bioorg Med Chem Lett, 2016)
pIC50: −log10 of the molar value. Calls of active or inactive are those of the source. The calls are words filed in the database; no cut-off is given here.

How the values were obtained:
[1] = Induction of reactive oxygen species in human MDA-MB-231 cells at 10 uM after 24 hrs by DCFH-DA probe-based flow cytometric method; assay type: physicochemical, cell-based; conditions: mda-mb-231, 24 h
[2] = Cytotoxicity against human PC3 cells assessed as growth inhibition after 48 hrs by SRB assay; assay type: functional, cell-based; conditions: PC-3, 48 h
[3] = biological target: T1, Serine/threonine-protein kinase Chk1/2 (Homo sapiens) (UniProt O96017+O14757); experiment: Induction of CHK1/2 phosphorylation in human MDA-MB-231 cells assessed as increase in p21 protein expression at 10 uM after 6 to 24 hrs by Western blot method; assay type: cell-based
[4] = biological target: Serine/threonine-protein kinase Chk2 (Homo sapiens) (UniProt O96017); experiment: Induction of CHK2 phosphorylation in human MDA-MB-231 cells at 10 uM after 6 to 24 hrs by Western blot method; assay type: cell-based
[5] = biological target: T1, Serine/threonine-protein kinase Chk1/2 (Homo sapiens); experiment: Induction of CHK1/2 phosphorylation in human MDA-MB-231 cells assessed as increase in p53 phosphorylation at 10 uM after 6 to 24 hrs by Western blot method; assay type: cell-based
MDA-MB-231 [6] = experiment: Induction of DNA damage in human MDA-MB-231 cells assessed as phosphorylation of gammaH2AX at IC50 to 3 times IC50 after 48 hrs by flow cytometric analysis; assay type: functional, cell-based
[7] = Cytotoxicity against human T47D cells assessed as growth inhibition after 24 to 48 hrs by MTT assay; assay type: functional, cell-based
[8] = Cytotoxicity against human IMR90 cells assessed as growth inhibition up to 40 uM after 24 to 48 hrs by MTT assay; assay type: toxicity, cell-based; conditions: imr-90
MDA-MB-231 [9] = experiment: Binding affinity to DNA minor groove in human MDA-MB-231 cells up to 100 uM after 20 mins by Hoechst 33342 staining-based fluorometric method; assay type: cell-based
[10] = Cytotoxicity against human MCF7 cells assessed as growth inhibition after 24 to 48 hrs by MTT assay; assay type: functional, cell-based
[11] = Cytotoxicity against human MDA-MB-231 cells assessed as growth inhibition after 24 to 48 hrs by MTT assay; assay type: functional, cell-based
MDA-MB-231 [12] = experiment: Induction of apoptosis in human MDA-MB-231 cells assessed as PARP cleavage by flow cytometric method; assay type: functional, cell-based
[13] = biological target: Serine-protein kinase ATM (Homo sapiens) (UniProt Q13315); experiment: Induction of ATM phosphorylation in human MDA-MB-231 cells at 10 uM after 6 to 24 hrs by Western blot method; assay type: cell-based
[14] = Cell cycle arrest in human MDA-MB-231 cells assessed as accumulation at S phase at 32 uM after 6 to 12 hrs by propidium iodide staining-based flow cytometric method; assay type: functional
[15] = biological target: T2, Serine/threonine-protein kinase Chk1 (Homo sapiens) (UniProt O14757); experiment: Induction of CHK1 phosphorylation in human MDA-MB-231 cells at 10 uM after 6 to 24 hrs by Western blot method; assay type: cell-based
T2 sequence (whole entry): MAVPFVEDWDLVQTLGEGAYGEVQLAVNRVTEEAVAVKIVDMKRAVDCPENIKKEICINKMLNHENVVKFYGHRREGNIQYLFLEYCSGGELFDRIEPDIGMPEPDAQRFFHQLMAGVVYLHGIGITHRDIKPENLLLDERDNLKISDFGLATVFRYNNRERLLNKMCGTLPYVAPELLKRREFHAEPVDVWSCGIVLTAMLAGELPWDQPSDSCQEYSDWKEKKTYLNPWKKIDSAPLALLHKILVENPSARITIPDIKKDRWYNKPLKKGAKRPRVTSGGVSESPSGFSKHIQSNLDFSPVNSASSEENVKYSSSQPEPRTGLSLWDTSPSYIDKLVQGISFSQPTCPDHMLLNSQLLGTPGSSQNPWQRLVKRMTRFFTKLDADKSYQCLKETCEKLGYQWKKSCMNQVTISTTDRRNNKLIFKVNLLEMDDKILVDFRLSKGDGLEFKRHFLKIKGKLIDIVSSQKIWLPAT

[16] = Induction of reactive oxygen species in human MDA-MB-231 cells at 30 uM after 24 hrs by DCFH-DA probe-based flow cytometric method; assay type: physicochemical, cell-based; conditions: mda-mb-231, 24 h

T1 sequence (O96017 whole entry, looked up, one chain of several): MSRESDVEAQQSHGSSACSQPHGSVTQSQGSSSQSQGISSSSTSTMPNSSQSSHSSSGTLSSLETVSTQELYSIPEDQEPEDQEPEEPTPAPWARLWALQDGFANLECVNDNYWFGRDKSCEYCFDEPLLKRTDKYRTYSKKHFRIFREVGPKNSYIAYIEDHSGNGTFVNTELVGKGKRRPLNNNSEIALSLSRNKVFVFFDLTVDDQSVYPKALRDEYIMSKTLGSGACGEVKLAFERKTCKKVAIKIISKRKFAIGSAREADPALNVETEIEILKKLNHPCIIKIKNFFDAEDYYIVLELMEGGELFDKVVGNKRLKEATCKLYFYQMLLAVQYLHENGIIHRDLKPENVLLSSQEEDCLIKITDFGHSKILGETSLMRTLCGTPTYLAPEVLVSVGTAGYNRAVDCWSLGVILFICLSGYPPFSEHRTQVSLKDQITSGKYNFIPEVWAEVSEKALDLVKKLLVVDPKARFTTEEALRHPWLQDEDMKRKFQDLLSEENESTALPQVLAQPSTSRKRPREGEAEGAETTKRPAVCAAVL
Serine-protein kinase ATM (Homo sapiens), sequence (Q13315 whole entry): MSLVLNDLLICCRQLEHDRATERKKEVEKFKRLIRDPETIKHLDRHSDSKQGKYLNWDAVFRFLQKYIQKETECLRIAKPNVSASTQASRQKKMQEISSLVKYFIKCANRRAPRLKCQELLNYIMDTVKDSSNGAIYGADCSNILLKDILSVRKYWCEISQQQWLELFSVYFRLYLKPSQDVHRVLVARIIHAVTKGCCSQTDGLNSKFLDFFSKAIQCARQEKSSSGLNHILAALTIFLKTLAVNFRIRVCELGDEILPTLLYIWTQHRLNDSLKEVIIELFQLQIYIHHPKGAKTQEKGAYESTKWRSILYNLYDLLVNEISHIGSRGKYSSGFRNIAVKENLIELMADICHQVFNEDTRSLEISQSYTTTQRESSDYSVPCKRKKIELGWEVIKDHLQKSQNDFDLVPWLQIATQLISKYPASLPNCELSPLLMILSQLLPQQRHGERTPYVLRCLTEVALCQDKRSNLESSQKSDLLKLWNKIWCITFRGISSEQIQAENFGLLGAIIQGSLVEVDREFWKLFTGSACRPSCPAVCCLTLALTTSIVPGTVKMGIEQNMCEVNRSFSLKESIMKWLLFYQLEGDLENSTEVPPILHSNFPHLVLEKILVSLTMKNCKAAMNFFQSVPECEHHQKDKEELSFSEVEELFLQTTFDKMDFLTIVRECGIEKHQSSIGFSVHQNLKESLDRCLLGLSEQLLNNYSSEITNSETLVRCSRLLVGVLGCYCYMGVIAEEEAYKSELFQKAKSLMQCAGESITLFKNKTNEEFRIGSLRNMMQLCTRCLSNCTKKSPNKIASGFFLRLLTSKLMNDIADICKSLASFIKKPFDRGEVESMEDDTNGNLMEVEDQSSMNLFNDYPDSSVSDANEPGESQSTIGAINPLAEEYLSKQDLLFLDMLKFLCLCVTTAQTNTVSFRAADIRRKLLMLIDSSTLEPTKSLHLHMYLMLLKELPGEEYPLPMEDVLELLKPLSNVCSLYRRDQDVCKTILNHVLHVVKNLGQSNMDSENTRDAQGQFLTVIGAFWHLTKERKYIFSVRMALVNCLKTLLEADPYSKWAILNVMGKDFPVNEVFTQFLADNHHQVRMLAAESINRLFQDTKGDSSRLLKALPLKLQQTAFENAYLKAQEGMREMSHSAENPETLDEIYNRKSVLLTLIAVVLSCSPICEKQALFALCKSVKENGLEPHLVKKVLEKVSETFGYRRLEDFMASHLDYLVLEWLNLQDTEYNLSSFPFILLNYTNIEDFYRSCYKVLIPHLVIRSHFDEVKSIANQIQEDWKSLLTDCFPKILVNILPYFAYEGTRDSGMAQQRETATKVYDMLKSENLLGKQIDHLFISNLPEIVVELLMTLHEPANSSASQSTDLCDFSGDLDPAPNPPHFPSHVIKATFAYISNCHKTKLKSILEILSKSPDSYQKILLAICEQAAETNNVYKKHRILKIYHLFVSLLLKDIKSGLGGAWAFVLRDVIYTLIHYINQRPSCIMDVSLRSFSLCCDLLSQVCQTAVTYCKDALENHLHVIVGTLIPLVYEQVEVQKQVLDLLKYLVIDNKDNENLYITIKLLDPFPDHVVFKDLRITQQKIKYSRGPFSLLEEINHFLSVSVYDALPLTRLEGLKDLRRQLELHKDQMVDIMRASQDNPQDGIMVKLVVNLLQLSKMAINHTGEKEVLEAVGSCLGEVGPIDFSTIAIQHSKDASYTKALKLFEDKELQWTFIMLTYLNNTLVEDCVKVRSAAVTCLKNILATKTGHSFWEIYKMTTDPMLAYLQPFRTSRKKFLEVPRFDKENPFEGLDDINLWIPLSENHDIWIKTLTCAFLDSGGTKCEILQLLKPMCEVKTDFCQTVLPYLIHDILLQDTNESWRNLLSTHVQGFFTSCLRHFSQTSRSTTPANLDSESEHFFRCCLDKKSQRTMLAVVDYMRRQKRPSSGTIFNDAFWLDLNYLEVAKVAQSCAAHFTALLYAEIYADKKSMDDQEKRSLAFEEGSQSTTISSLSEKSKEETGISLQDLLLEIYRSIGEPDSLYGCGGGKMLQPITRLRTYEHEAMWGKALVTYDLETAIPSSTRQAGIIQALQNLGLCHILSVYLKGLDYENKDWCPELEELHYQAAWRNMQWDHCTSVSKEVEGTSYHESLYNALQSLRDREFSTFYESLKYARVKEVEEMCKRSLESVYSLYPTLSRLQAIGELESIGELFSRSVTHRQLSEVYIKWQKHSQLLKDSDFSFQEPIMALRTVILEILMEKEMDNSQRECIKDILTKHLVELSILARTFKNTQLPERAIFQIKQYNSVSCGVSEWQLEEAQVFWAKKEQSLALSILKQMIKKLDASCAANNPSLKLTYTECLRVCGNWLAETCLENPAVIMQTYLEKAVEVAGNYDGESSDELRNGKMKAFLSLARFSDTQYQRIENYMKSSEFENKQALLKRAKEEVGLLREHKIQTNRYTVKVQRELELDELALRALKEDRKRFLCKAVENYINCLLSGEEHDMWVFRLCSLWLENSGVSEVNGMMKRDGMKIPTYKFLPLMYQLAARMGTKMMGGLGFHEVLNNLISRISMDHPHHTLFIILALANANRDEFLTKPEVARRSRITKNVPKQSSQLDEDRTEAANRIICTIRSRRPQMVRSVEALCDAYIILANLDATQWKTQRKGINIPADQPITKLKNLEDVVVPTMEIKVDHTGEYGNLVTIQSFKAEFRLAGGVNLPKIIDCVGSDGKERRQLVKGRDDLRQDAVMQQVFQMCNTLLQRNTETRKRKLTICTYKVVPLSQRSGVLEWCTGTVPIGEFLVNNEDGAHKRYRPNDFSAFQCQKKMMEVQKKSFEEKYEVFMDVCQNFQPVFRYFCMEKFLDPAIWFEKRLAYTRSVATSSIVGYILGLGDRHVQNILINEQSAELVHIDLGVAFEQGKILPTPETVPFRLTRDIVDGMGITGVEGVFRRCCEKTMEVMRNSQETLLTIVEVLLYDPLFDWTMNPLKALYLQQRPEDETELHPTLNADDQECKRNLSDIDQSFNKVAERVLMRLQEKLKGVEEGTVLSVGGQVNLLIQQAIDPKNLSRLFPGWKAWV
Serine/threonine-protein kinase Chk2 (Homo sapiens), sequence (O96017 whole entry): as the sequence (O96017 whole entry, looked up, one chain of several) above

Structure (SMILES)	Activity [1]	pIC50 [2]	other results
CC[C@H](C)C(=O)O[C@H]1C[C@@H](C)C=C2C=C[C@H](C)[C@H](CC[C@@H](O)C[C@@H](CC(=O)NO)OC(=O)c3ccc([N+](=O)[O-])cc3)[C@H]21	Active	5.09	–
CC[C@H](C)C(=O)O[C@H]1C[C@@H](C)C=C2C=C[C@H](C)[C@H](CC[C@@H](O)C[C@@H](CC(=O)NO)OC(=O)c3ccccc3)[C@H]21	Active	5.48	Activity [3]: Active; Activity [4]: Active; Activity [5]: Active; Activity (MDA-MB-231 [6]): Active; pIC50 [7]: 4.40 to 4.52; Activity [8]: Non-Toxic; Activity (MDA-MB-231 [9]): Active; pIC50 [10]: 4.40 to 4.52; pIC50 [11]: 4.40 to 4.52; Activity (MDA-MB-231 [12]): Dose-dependent effect; Activity [13]: Active; Activity [14]: Active; Activity [15]: Active
CC[C@H](C)C(=O)O[C@H]1C[C@@H](C)C=C2C=C[C@H](C)[C@H](CC[C@@H](O)C[C@@H](CC(=O)NO)OC(=O)CCc3ccccc3)[C@H]21	Active	5.21	–
CC[C@H](C)C(=O)O[C@H]1C[C@@H](C)C=C2C=C[C@H](C)[C@H](CC[C@@H](O)C[C@@H](CC(=O)NO)OC(=O)c3ccc4ccccc4c3)[C@H]21	Active	4.76	–
CC[C@H](C)C(=O)O[C@H]1C[C@@H](C)C=C2C=C[C@H](C)[C@H](CC[C@@H](O)C[C@@H](CC(=O)NO)OC(=O)Cc3ccccc3)[C@H]21	Active	5.24	–
CC[C@H](C)C(=O)O[C@H]1C[C@@H](C)C=C2C=C[C@H](C)[C@H](CC[C@@H](O)C[C@@H](CC(=O)NO)OC(C)=O)[C@H]21	Active	4.94	–
C[C@H]1C=C2C=C[C@H](C)[C@H](CC[C@@H](O)C[C@H](O)CC(=O)NO)[C@H]2[C@@H](O)C1	Active	< 4.52	–
CC[C@H](C)C(=O)O[C@H]1C[C@@H](C)C=C2C=C[C@H](C)[C@H](CC[C@@H]3C[C@@H](O)CC(=O)O3)[C@H]21 [LOVASTATIN]	–	5.27	Activity [5]: Active; pIC50 [7]: < 4.40; pIC50 [10]: < 4.40; pIC50 [11]: < 4.40; Activity [13]: Active; Activity [16]: Active
CC[C@H](C)C(=O)O[C@H]1C[C@@H](C)C=C2C=C[C@H](C)[C@H](CC[C@@H](O)C[C@@H](CC(=O)NO)OC(=O)c3ccc(Cl)cc3)[C@H]21	Active	4.66	–
CC[C@H](C)C(=O)O[C@H]1C[C@@H](C)C=C2C=C[C@H](C)[C@H](CC[C@@H](O)C[C@@H](CC(=O)NO)OC(=O)c3ccc(OC(F)(F)F)cc3)[C@H]21	Active	4.69	–
CC[C@H](C)C(=O)O[C@H]1C[C@@H](C)C=C2C=C[C@H](C)[C@H](CC[C@@H](O)C[C@@H](CC(=O)NO)OC(=O)C(C)(C)C)[C@H]21	Active	5.14	–
